Measured values from patent publication US20050048508A1, “Trehalose receptor and method for detecting trehalose with the same” (KABUSHIKI KAISHA HAYASHIBARA SEIBUTSU KAGAKU KENKYUJO, priority 2002, published 2005).
Residues, ends and D or L forms follow the SMILES beside them.

Each compound was assayed against T1, T1R3 with G protein α-subunits (α15 and α16/Z chimeric protein) (Mus musculus, UniProt Q925D8, I706N) (assay: Intracellular calcium ion assay, 293 cells coexpressing G protein α-subunits and T1R3 (trehalose receptor)). Conditions: Table 4: sweet taste substances on cells coexpressing G protein α-subunits and T1R3, measured similarly as in Example 4.
T1 construct: expressed in transfected cells; host or cells: 293 cells, RCB 1637 (human embryonic kidney)
T1 sequence (Q925D8 21-858 I706N): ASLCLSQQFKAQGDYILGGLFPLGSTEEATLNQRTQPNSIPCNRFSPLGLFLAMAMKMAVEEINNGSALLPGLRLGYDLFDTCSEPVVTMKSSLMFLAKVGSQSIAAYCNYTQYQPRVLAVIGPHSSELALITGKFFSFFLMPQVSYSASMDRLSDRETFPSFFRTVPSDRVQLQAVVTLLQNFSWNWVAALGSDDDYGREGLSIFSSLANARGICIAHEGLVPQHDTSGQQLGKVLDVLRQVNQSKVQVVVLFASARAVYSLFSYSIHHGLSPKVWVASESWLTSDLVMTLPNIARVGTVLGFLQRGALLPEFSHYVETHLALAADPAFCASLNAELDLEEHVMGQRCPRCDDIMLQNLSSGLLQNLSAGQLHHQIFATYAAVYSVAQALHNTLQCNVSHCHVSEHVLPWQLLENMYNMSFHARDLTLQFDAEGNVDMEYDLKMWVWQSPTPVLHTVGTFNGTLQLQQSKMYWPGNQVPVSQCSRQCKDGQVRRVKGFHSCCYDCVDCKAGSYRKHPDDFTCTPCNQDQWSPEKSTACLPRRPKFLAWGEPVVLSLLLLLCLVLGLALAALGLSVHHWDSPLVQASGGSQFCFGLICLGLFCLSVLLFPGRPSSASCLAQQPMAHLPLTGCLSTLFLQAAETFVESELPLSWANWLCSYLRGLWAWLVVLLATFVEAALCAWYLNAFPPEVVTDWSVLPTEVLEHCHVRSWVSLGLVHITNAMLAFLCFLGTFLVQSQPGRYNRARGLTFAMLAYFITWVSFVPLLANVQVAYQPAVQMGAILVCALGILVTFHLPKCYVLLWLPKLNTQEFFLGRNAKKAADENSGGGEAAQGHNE
Type: cell-based
Method: The coexpression vector for the G protein α-subunit α15 and the G protein α16/Z chimeric protein (hereinafter designated as “G protein α-subunits”) obtained in Example 1-3 was gene transferred to 293 cells, RCB 1637, a human embryonic kidney cell line, available from the Riken Bioresource Center, Ibaraki, Japan, by conventional lipofection. The gene transferred cells were suspended in Dulbecco's Modified Eagle's Medium (D-MEM) supplemented with 1 mg/L of “PUROMYCIN”, a trade mane of puromycin commercialized by Edge Biosystems, MD, USA, and 10% (v/v) of fetal calf serum to give a cell density of 2×10^6 cells/ml and cultured in a plastic petri dish for cell culture. After 10 to 14 days of incubation, a puromycin-resistant cell colony was collected and confirmed its production of the G protein α-subunit proteins with an index of their mRNA level by conventional RT-PCR. Thus, a cell line capable of expressing the G protein α-subunit proteins was established. To the cells were gene transferred an expression vector for the sweet taste receptor protein T1R1, T1R2, or T1R3 in Example 2-2; or a coexpression vector for a pair of T1R1 and T1R2, T1R1 and T1R3, or T1R2 and T1R3 by conventional lipofection. The resulting cells were suspended in D-MEM supplemented with 1 mg/L of “PUROMYCIN”, 500 mg/L of “GENETICIN”, and 10% (v/v) of fetal calf serum and cultured in a plastic petri dish for cell culture. After 10 to 14 days of incubation, a cell colony resistant to both of the above drugs was collected and confirmed that the transferred gene had been expressed intracellularly as expected by conventional RT-PCR at a mRNA level. Thus, a cell, which had coexpressed the desired G proteins and sweet taste receptors, was obtained. As a control, a cell, into which an expression vector with no G protein α-subunit protein gene or sweet taste receptor protein gene, was prepared and used.
The captioned reactivity test was conducted according to a conventional intracellular calcium ion assay: 293 Cells prepared in Example 3, capable of coexpressing the G protein α-subunits and the sweet taste receptor(s), were cultured in a plastic petri dish for cell culture until reaching its confluent phase. Thereafter, the cells were detached from the inner surface of the petri dish with a 0.05% (v/v) trypsin solution and a 0.53 mM EDTA solution, suspended in D-MEM supplemented with 10% (v/v) fetal calf serum to give a cell density of 1×10^6 cells/ml, and allowed to intake “FLUO-4. AM”, a reagent for detecting intracellular calcium ion commercialized by Molecular Probes Inc., Ore., USA, by adding to the cell suspension to give a final concentration of 2 μM and incubating the cells at 37 ° C. for 30 to 90 min. The resulting cells were washed with a buffer for detecting calcium ion, which contained 10 mM HEPES (pH 7.4), 130 mM sodium chloride, 5.4 mM potassium chloride, 2 mM calcium chloride, 1 mM magnesium chloride, 5.5 mM D-glucose, 0.1% (v/v) calf serum albumin, and 1 mM sodium pyruvate to remove the reagent remained extracellularly; suspended in a fresh preparation of the same buffer to give a cell density of 2.67 ×10^7 cells/ml; filtered with a membrane with a pore size of 100 μm mesh; and allowed to stand at 25° C. for 30 min. Two milliliters of the resultant cell suspension was injected into a glass cuvette, commercialized by Hitachi, Ltd., Tokyo, Japan, and analyzed on “HITACHI 650-40”, a fluorescence spectrophotometer commercialized by Hitachi, Ltd., Tokyo, Japan. […]
`COC(=O)[C@H](Cc1ccccc1)NC(=O)[C@@H](N)CC(=O)O` [Aspartame] (HELM PEPTIDE1{D.F.[CO[*:1]]}$$$$V2.0) was tested, and the “Influx of calcium ion” value was “Negative”.
`O=C[C@H](O)[C@@H](O)[C@@H](O)[C@H](O)CO` [Galactose] was tested, and the “Influx of calcium ion” value was “Negative”.
`OC[C@@H](O)[C@@H](O)CO` [Erythritol] was tested, and the “Influx of calcium ion” value was “Negative”.
In the case of `O=C(CO)[C@@H](O)[C@H](O)[C@H](O)CO` [Fructose], the “Influx of calcium ion” value is reported as “Negative”.
In the case of `C[C@H](N)C(=O)O` [Alanine], the “Influx of calcium ion” value is reported as “Negative”.
`OC[C@H]1O[C@H](O[C@]2(CCl)O[C@H](CCl)[C@@H](O)[C@@H]2O)[C@H](O)[C@@H](O)[C@H]1Cl` [Sucralose] was tested, and the “Influx of calcium ion” value was “Negative”.
For `NCC(=O)O` [L-Glycine], the “Influx of calcium ion” value was “Negative”.
`OC[C@@H](O)[C@@H](O[C@H]1O[C@H](CO)[C@@H](O)[C@H](O)[C@H]1O)[C@H](O)[C@@H](O)CO` [Maltitol] was tested, and the “Influx of calcium ion” value was “Negative”.
